In ChEMBL document CHEMBL4316583, “In Vitro and in Vivo Antitumor Effects of Plant-Derived Miliusanes and Their Induction of Cellular Senescence” (J Med Chem, 2019):
The source made the active and inactive calls. No cut-off for these calls is given here.

What was measured:
[1] = Ratio of IC50 for human A2780/TAX cells to IC50 for human A2780 cells after 72 hrs by MTS assay; assay type: functional
HCT-116 [2] = assay: Growth inhibition human HCT116 cells after 72 hrs by MTS assay; assay type: functional, cell-based; settings: HCT-116, 72 h
HCT-116 [3] = assay: Antitumor activity against human HCT116 cells xenografted in nude BALB/c mouse assessed as suppression of excised tumor size at 20 mg/kg, ip administered twice a week for 3 weeks relative to control; assay type: functional
A549 = assay: Cytotoxicity against human A549 cells assessed as cell growth inhibition after 48 hrs by sulforhodamine B assay; assay type: functional, cell-based; settings: A549, 48 h
HCT-116 [4] = assay: Induction cell cycle arrest in human HCT116 cells assessed as accumulation in G1 phase at 1.6 uM after 12 hrs by propidium iodide-staining based flow cytometry; assay type: functional
A2780 = assay: Growth inhibition human A2780 cells after 72 hrs by MTS assay; assay type: functional, cell-based; settings: A2780, 72 h
HCT-116 [5] = assay: Antiproliferative activity against human HCT116 cells assessed as inhibition of colony formation at 0.66 to 2.63 uM after 14 days by crystal violet-staining based assay; assay type: functional, cell-based
A-375 [6] = assay: Antitumor activity against human A375 cells xenografted in nude BALB/c mouse assessed as suppression of tumor volume at 7.5 mg/kg, ip administered every other day for 23 days relative to control; assay type: functional; settings: A-375, ip, 552 h, read-out: TGI
[7] = Toxicity in nude BALB/c mouse xenografted with human HCT116 cells assessed as body weight loss at 7.5 mg/kg, ip measured on day 10 and 11; assay type: organism-based; settings: in vivo
HCT-116 [8] = assay: Antiproliferative activity against human HCT116 cells xenografted in BALB/c mouse at 10 mg/kg, administered every other day for 3 weeks by Ki67-staining based assay; assay type: functional, organism-based
HCT-116 [9] = assay: Antitumor activity against human HCT116 cells xenografted in nude BALB/c mouse assessed as tumor growth inhibition at 7.5 mg/kg, ip administered daily for 21 days relative to control; assay type: functional; settings: HCT-116, ip, 504 h, read-out: TGI
Mus musculus [10] = assay: Effect on p27 protein expression in BALB/c mouse xenografted with human HCT116 cells at 10 mg/kg, administered every other day for 3 weeks by immunohistochemical analysis; assay type: functional, organism-based
HCT-116 [11] = assay: Antitumor activity against human HCT116 cells xenografted in nude BALB/c mouse assessed as tumor growth inhibition at 30 mg/kg, ip administered twice a week for 3 weeks relative to control; assay type: functional; settings: HCT-116, ip, 504 h, read-out: TGI
HCT-116 [12] = assay: Induction of cellular senescence in human HCT116 cells at 1.32 uM after 48 hrs by SA-beta-gal-staining based assay; assay type: functional, cell-based
HCT-116 [13] = assay: Induction of apoptosis in human HCT116 cells assessed as early apoptotic cells at 1.32 uM after 48 hrs by annexin V/propidium iodide-double staining based flow cytometry (reference value: 4.8%); assay type: functional
[14] = Toxicity in nude BALB/c mouse xenografted with human HCT116 cells assessed as body weight loss at 20 to 30 mg/kg, ip administered twice a week for 3 weeks; assay type: organism-based; settings: in vivo, 504 h
HT-29 = assay: Growth inhibition human HT-29 cells after 72 hrs by MTS assay; assay type: functional, cell-based
HCT-116 [15] = assay: Cytotoxicity against human HCT116 cells assessed as cell growth inhibition after 24 hrs by sulforhodamine B assay; assay type: functional, cell-based; settings: HCT-116, 24 h
HCT-116 [16] = assay: Antitumor activity against human HCT116 cells xenografted in nude BALB/c mouse assessed as suppression of excised tumor size at 30 mg/kg, ip administered twice a week for 3 weeks relative to control; assay type: functional
HCT-116 [17] = assay: Induction of cellular senescence in human HCT116 cells assessed as up-regulation of p21 protein expression at 0.1 to 0.4 ug/ml after 48 hrs by Western blot analysis; assay type: functional, cell-based
[18] = Ratio of IC50 for human A2780DDP cells to IC50 for human A2780 cells after 72 hrs by MTS assay; assay type: functional
HCT-116 [19] = assay: Induction cell cycle arrest in human HCT116 cells assessed as accumulation in S phase at 1.6 uM after 24 hrs by propidium iodide-staining based flow cytometry; assay type: functional
HCT-116 [20] = assay: Induction cell cycle arrest in human HCT116 cells assessed as reduction in accumulation in S phase at 1.6 uM after 12 hrs by propidium iodide-staining based flow cytometry; assay type: functional
HeLa [21] = assay: Antitumor activity against human HeLa cells xenografted in nude BALB/c mouse assessed as suppression of excised tumor size at 10 mg/kg, ip administered every other day for 21 days and observed for 6 days before sacrifice relative to control; assay type: functional
HCT-116 [22] = assay: Antitumor activity against human HCT116 cells xenografted in nude BALB/c mouse assessed as tumor growth inhibition at 20 mg/kg, ip administered twice a week for 3 weeks relative to control; assay type: functional; settings: HCT-116, ip, 504 h, read-out: TGI
HCT-116 [23] = assay: Induction of apoptosis in human HCT116 cells assessed as necrotic cells at 1.32 uM after 48 hrs by annexin V/propidium iodide-double staining based flow cytometry (reference value: […]); assay type: functional
HCT-116 [24] = assay: Induction of apoptosis in human HCT116 cells assessed as late apoptotic cells at 1.32 uM after 48 hrs by annexin V/propidium iodide-double staining based flow cytometry (reference value: 4.6%); assay type: functional
Mus musculus [25] = assay: Induction of cellular senescence in BALB/c mouse xenografted with human HCT116 cells assessed as up-regulation of p21 protein expression at 10 mg/kg, administered every other day for 3 weeks by immunohistochemical analysis; assay type: functional, organism-based
HCT-116 [26] = assay: Induction of cellular senescence in human HCT116 cells assessed as up-regulation of p21 protein expression at 1.32 uM after 48 hrs in presence of p21 siRNA by SA-beta-gal-staining based Western blot analysis; assay type: functional, cell-based
Mus musculus [27] = assay: Induction of cellular senescence in BALB/c mouse xenografted with human HCT116 cells assessed as up-regulation of p16 protein expression at 10 mg/kg, administered every other day for 3 weeks by immunohistochemical analysis; assay type: functional, organism-based
[28] = Ratio of IC50 for human HCT116/VM46 cells to IC50 for human HCT116 cells after 72 hrs by MTS assay; assay type: functional
HCT-116 [29] = assay: Induction of apoptosis in human HCT116 cells assessed as viable cells at 1.32 uM after 48 hrs by annexin V/propidium iodide-double staining based flow cytometry (reference value: 88.3%); assay type: functional; settings: HCT-116, 48 h, read-out: Activity
HeLa [30] = assay: Antitumor activity against human HeLa cells xenografted in nude BALB/c mouse assessed as tumor growth inhibition at 10 mg/kg, ip administered every other day for 21 days and observed for 6 days before sacrifice relative to control; assay type: functional; settings: read-out: TGI
HCT-116 [31] = assay: Antitumor activity against human HCT116 cells xenografted in nude BALB/c mouse assessed as reduction in volume of growing subcutaneous tumor at 20 to 30 mg/kg, ip administered twice a week for 3 weeks; assay type: functional, organism-based
HCT-116 [32] = assay: Cytotoxicity against human HCT116 cells assessed as cell growth inhibition after 48 hrs by sulforhodamine B assay; assay type: functional, cell-based; settings: HCT-116, 48 h
[33] = Toxicity in BALB/c mouse assessed as mortality at 10 mg/kg, ip dosed daily for 28 days; assay type: organism-based; settings: in vivo, 672 h
A-375 [34] = assay: Cytotoxicity against human A375 cells assessed as cell growth inhibition after 48 hrs by sulforhodamine B assay; assay type: functional, cell-based; settings: A-375, 48 h
[35] = test system: Panel NCI-60 (60 carcinoma cell lines); assay: Growth inhibition human NCI60 cells after 48 hrs by sulforhodamine B assay; assay type: functional
[36] = Ratio of IC50 for human HCT116/VP35 cells to IC50 for human HCT116 cells after 72 hrs by MTS assay; assay type: functional
A-375 [37] = assay: Antitumor activity against human A375 cells xenografted in nude BALB/c mouse assessed as tumor growth inhibition at 7.5 mg/kg, ip administered every other day for 23 days relative to control; assay type: functional; settings: A-375, ip, 552 h, read-out: TGI

CC(C)=CCC/C(C)=C/[C@H]1OC(=O)C[C@]12C[C@H](O)C=CC2=O
Ratio IC50 [1]: 0.8 | IC50 (HCT-116 [2]): 1520 nM | Activity (HCT-116 [3]): 72.7% | IC50 (A549): 2450 nM | Activity (HCT-116 [4]): Active | IC50 (A2780): 1230 nM | Activity (HCT-116 [5]): Active | inhibition in vivo at 7.5 mg/kg (A-375 [6]): 20.6% | Activity [7]: Toxic | Activity (HCT-116 [8]): Active | inhibition in vivo at 7.5 mg/kg (HCT-116 [9]): 29.9% | Activity (Mus musculus [10]): inactive | inhibition in vivo at 30 mg/kg (HCT-116 [11]): 72.7% | Activity (HCT-116 [12]): Active | Activity (HCT-116 [13]): 4.4% | Activity [14]: 1 g | growth inhibition (GI) (HT-29): Active | IC50 (HCT-116 [15]): 3670 nM | Activity (HCT-116 [16]): 68.7% | Activity (HCT-116 [17]): Active | Ratio IC50 [18]: 1 | Activity (HCT-116 [19]): inactive | Activity (HCT-116 [20]): inactive | Activity (HeLa [21]): 31.5% | inhibition in vivo at 20 mg/kg (HCT-116 [22]): 68.7% | Activity (HCT-116 [23]): 2.5% | Activity (HCT-116 [24]): 4.9% | Activity (Mus musculus [25]): Active | Activity (HCT-116 [26]): inactive | Activity (Mus musculus [27]): Active | Ratio IC50 [28]: 0.9 | viability at 1.32 µM (HCT-116 [29]): 88.2% | inhibition in vivo at 10 mg/kg (HeLa [30]): 30% | Activity (HCT-116 [31]): Active | IC50 (HCT-116 [32]): 2000 to 2610 nM | Activity [33]: Non-Toxic | IC50 (A-375 [34]): 1500 nM | GI50 [35]: 30 to 4790 nM | Ratio IC50 [36]: 1.1 | inhibition in vivo at 7.5 mg/kg (A-375 [37]): 12.8%
